Assay results: patent publication US7132287B2, “Method for neural stem cell differentiation using 5HT-1A agonists” (Psychiatric Genomics, Inc., priority 2001, dated 2006)

System: striatal stem cells
Experiment: Differentiation of striatal stem cells (TuJ1 positive cells)
Assay type: cell-based, rat
Conditions: for % TuJ1 positive cells: striatal stem cells, Table 6
From the text: Isolation of cortical and striatal stem cells. Timed pregnant Sprague Dawley rats obtained from Taconic at embryonic age E14-E15 were sacrificed as described above and the uterus removed and placed in ice cold PBS in a 10 cm petridish. After rinsing the uterus in PBS, embryos were removed from the uterus, rinsed in PBS and collected in cold HBSS (buffered with HEPES and sodium bicarbonate) in a 10 cm petridish and placed on ice.
The cortex and striatum was dissected under a microscope and collected in a 15 ml tube of HBSS, on ice. Removal of meninges is not possible at this age, and no attempt was made to do so. If the dissected tissue was in large enough chunks and settle to the bottom of the tube, no centrifugation was performed. Alternatively, the tube was centrifuged at 1000 rpm for 5 minutes to pellet the tissue. Following centrifugation, the 15 ml tube containing the tissue was sprayed with 70% ethanol and taken into the sterile hood.
The HBSS was aspirated and replaced with 10 ml of DMEM/F12. The tissue was collected at the bottom of the tube by gravity or centrifugation, medium was aspirated, and 1 ml of DMEM/F12 was to the tissue. Cells were dissociated by trituration as described above, followed by addition of 5 ml of DMEM/F12 and a second round of trituration. […] The tubes were placed standing 5–10 minutes in the hood to allow larger particles and meninges to settle. While the meninges were settling, a cell count was made. 10 μl of the cell suspension is diluted with trypan blue and counted in a hemocytometer. Cells were counted in the four outer chambers with the larger squares, and cell count calculated assuming that the volume enclosed in each of the chambers was […].
Plating, expansion and passaging of cortical and striatal stem cells A generous amount of the triturated cell suspension was left in the original 15 ml tube to avoid fibroblast contamination in cultures. About 4–5 ml of the 6 ml of cells suspension was used for plating. Cells were plated at a concentration of approximately 1×10^6 per 10 cm dish. This culture is designated P0 (passage 0).
Following plating cells were expanded for about 3–4 days. The cultures were never permitted to reach more than 70% confluency. Cultures were then passaged as follows: 5 ml of HBSS was added to each 10 cm dish and the cells incubated at 37° C. for 15–45 minutes, or until sufficient numbers of the stem cells were rounded up. It is not expected that all cells in the culture will round up as there are several cell types in the culture at P0. The pH of the HBSS should be neutral at all times during this incubation. Cells were then removed from the dish by pipetting with a 5 ml pipette, or by scraping with a policeman, collected in a 15 or 50 ml conical tube, and centrifuged at 1000 g for 5 minutes. Cells were gently re-suspended in medium, counted, and plated at a density of about 1×10^6 per 10 cm dish.
Drug treatments. Stem cells obtained as described above were treated with drugs and subjected to differentiation protocols in the second passage. Cells were plated at a density of 1×10^4 cells per well of a 12-well petridish (Falcon).
Drug treatments were started on the next day. […] The WAY 100635 antagonist compound was used simultaneously with buspirone or serotonin in the blocking experiments. Positive and negative control cultures were those treated with BDNF and FGF alone, respectively. […]

O=C1CC2(CCCC2)CC(=O)N1CCCCN1CCN(c2ncccn2)CC1 [buspirone, 8-[4-[4-(2-pyrimidinyl)-1-piperazinyl]butyl]-8-azaspiro[4,5]decane-7,9-dione]
% TuJ1 positive cells (100 nM): 54.4 ± 2.1%
% TuJ1 positive cells (500 nM): 64.8 ± 2.1%
% TuJ1 positive cells (10 μM): 67.9 ± 10.2%
% TuJ1 positive cells (100 μM): 68.5 ± 6.5%
promotion of differentiation compared to untreated control cultures (in words) (striatum, concentrations as low as 100 nM): able to promote differentiation significantly
